Laboratory results reported in US4225472A, “Truncated somatostatin analogs” (American Home Products Corporation, priority 1979, dated 1980).
Positions of bridges follow the written chain, without caps; N, C: chain ends. Non-standard residues stand in square brackets, D forms with d. Residues, ends and D or L forms follow the SMILES beside them.

Key:
growth hormone (GH) [1] = test: Arginine-stimulated Nembutal-anesthetized rats, blood growth hormone by radioimmunoassay; format: in vivo, rat; settings: albino male rats, dose 100 μg/kg subcutaneous, arginine 10 min later, blood 5 min after arginine; control 488 ± 82; *p<0.05
Protocol: (§1) The product of the preceding examples illustrates the selective activity of the compounds of this invention for growth hormone and glucagon suppression in the following standard procedure:
(§2) Albino male rats are administered Nembutal intraperitoneally at a dose of 50 milligrams per kilogram. Fifteen minutes later a subcutaneous injection of the test compound or physiological saline (control) is administered. Ten minutes later 0.5 milliliters of arginine (300 milligrams per milliliter, pH 7.2) is injected into the heart. Five minutes after receipt of the arginine the rats are decapitated and blood is collected into trasylol-EDTA. An appropriate aliquot is assayed for growth hormone (GH), insulin, and glucagon by radioimmunoassay.

insulin = test: Arginine-stimulated Nembutal-anesthetized rats, blood insulin by radioimmunoassay; format: in vivo, rat; settings: albino male rats, dose 100 μg/kg subcutaneous, arginine 10 min later, blood 5 min after arginine; control 74 ± 4
Protocol: as §1, §2

glucagon = test: Arginine-stimulated Nembutal-anesthetized rats, blood glucagon by radioimmunoassay; format: in vivo, rat; settings: albino male rats, dose 100 μg/kg subcutaneous, arginine 10 min later, blood 5 min after arginine; control 133 ± 13; *p<0.05
Protocol: as §1, §2

growth hormone (GH) [2] = test: Duration of activity, growth hormone level at 2 and 4 hours; format: in vivo; settings: dose 1,000 μg/kg, *p<0.01
Excerpt: The duration of activity of the product of Example 2 was as follows: […]

Q: With C[C@@H](O)[C@@H]1NC(=O)[C@H](CCCCN)NC(=O)[C@@H](Cc2c[nH]c3ccccc23)NC(=O)[C@H](Cc2c[nH]c3ccccc23)NC(=O)[C@H](Cc2ccccc2)NC(=O)[C@@H](N)CSSC[C@H](C(=O)O)NC(=O)[C@H](Cc2ccccc2)NC1=O [Example 2, L-Cysteinyl-L-phenylalanyl-L-tryptophyl-D-tryptophyl-L-lysyl-L-threonyl-L-phenylalanyl-D-cysteine cyclic (1-8) disulfide] (H-CFW[dW]KTF[dC]-OH; disulfide 1-8) as the compound, how does the GH (growth hormone (GH) [1]) read?
A: 191 ± 60 ng/mL

Q: What about the INS (insulin) of the same compound?
A: 69 ± 4 μU/ml

Q: What about the GLUN (glucagon) of the same compound?
A: 60 ± 12 pg/mL

Q: What about the GH (growth hormone (GH) [2]; 2 hours, control 369 ± 60) of the same compound?
A: 60 ± 6 ng/mL

Q: What about the GH (growth hormone (GH) [2]; 4 hours, control 354 ± 68) of the same compound?
A: 75 ± 10 ng/mL
